Test results from patent US20250084044A1, “PROTOPORPHYRINOGEN OXIDASE INHIBITORS” (Enko Chem, Inc., priority 2022, published 2025).

Columns and labels:
Type in all cases: in vivo
[1] = test system: Amaranthus retroflexus (AMARE); experiment: Post-emergence herbicidal activity, AMARE; conditions: 7 days after treatment; for pest or weed control at 100 ppm: Amaranthus retroflexus, 168 h, Table 3a; for Post-emergence (100 ppm) AMARE: Table 3b
Procedure: (§1) Selected compounds of the invention were screened at 100 PPM against Amaranthus retroflexus (AMARE), Setaria italica (SETIT), and Echinochloa crus-galli (ECHCG). […]
(§2) Compounds were formulated in 25% Acetone, 1% Crop oil concentrate (COC-Agridex), 0.1% Tween-20, and 2.5% Ammonium sulphate (AMS). Three replicate pots were treated with each compound. Treatment consisting of the above formulation excluding active compound was applied as a treatment control (TC). Plants were treated with the test compound solution in a laboratory spray chamber fitted with 8003 flat fan nozzles calibrated to deliver 187-200 L ha^−1 at 269 kPa. Plants were placed back in the growth chamber and evaluated for % visual injury compared to TC 7 days after treatment (DAT). The data presented in Table 3 indicate a percentage control, where 100% control indicates complete inhibition of growth. […]

Setaria italica (SETIT) [2] = experiment: Post-emergence herbicidal activity, SETIT; conditions: 7 days after treatment; for pest or weed control at 100 ppm: Setaria italica, 168 h, Table 3a; for Post-emergence (100 ppm) SETIT: Table 3b
Procedure: Selected compounds of the invention were screened at 100 PPM against Amaranthus retroflexus (AMARE), Setaria italica (SETIT), and Echinochloa crus-galli (ECHCG).
(§3) Accordingly, PPO susceptible weed seeds were sown in 5″×5″ pots by quadrant containing Miracle-Gro potting mix (Scotts Miracle-Gro Company, Marysville, OH. USA) and grown in a Conviron growth chamber with appropriate growth conditions (temperature of 26/22° C. with photoperiod 16/8 h light day/night and light intensity of 300 μmol m^−2 s^−1 supplemented by LED lamps). Relative humidity in the growth chamber was maintained at around 65%. Plants were grown until 2-4 leaf stage and thinned to 5-8 plants per quadrant per species.
(§4) Compounds were formulated in 25% Acetone, 1% Crop oil concentrate (COC-Agridex), 0.1% Tween-20, and 2.5% Ammonium sulphate (AMS). Three replicate pots were treated with each compound. Treatment consisting of the above formulation excluding active compound was applied as a treatment control (TC). Plants were treated with the test compound solution in a laboratory spray chamber fitted with 8003 flat fan nozzles calibrated to deliver 187-200 L ha^−1 at 269 kPa. Plants were placed back in the growth chamber and evaluated for % visual injury compared to TC 7 days after treatment (DAT). The data presented in Table 3 indicate a percentage control, where 100% control indicates complete inhibition of growth.
(§5) Selected compounds of the invention were screened at 100 PPM against Amaranthus retroflexus (AMARE), Echinochloa crus-galli (ECHCG), Kochia scoparia (KCHSC), and Setaria italica (SETIT).
as §3, with “5″ 5″” for “5″×5″”, “OH,” for “OH.”, “[…]” for “m^−2”

[3] = test system: Echinochloa crus-galli (ECHCG); experiment: Post-emergence herbicidal activity, ECHCG; conditions: 7 days after treatment; for pest or weed control at 100 ppm: Echinochloa crus-galli, 168 h, Table 3a; for Post-emergence (100 ppm) ECHCG: Table 3b
Procedure: as §1, §2

Kochia scoparia (KCHSC) [4] = experiment: Post-emergence herbicidal activity, KCHSC; conditions: 7 days after treatment, Table 3b
Procedure: as §5
as §3, with “5″ 5″” for “5″×5″”, “OH,” for “OH.”, “[…]” for “m^−2”
as §4

[5] = test system: Amaranthus retroflexus (AMARE); experiment: Pre-emergence herbicidal activity, AMARE; conditions: 7 days after treatment
Excerpt: (§6) Selected compounds of the invention were screened at 200 PPM against Amaranthus retroflexus (AMARE). Echinochloa crus-galli (ECHCG). Kochia scoparia (KCHSC), and Selaria italica (SETIT).
(§7) Accordingly, PPO susceptible weed seeds were planted in 5″×5″ pots by quadrant containing custom field soil mix (Sandy loam with 4.7% OM, pH 7.0) and covered with a fine layer of the same soil. Compounds were formulated in 25% Acetone, 1% Crop oil concentrate (COC-Agridex), 0.1% Tween-20, and 2.5% Ammonium sulphate (AMS). Three replicate pots were treated with each compound. Treatment consisting of the above formulation excluding active compound was applied as a treatment control (TC). Pots were treated with the test compound solution in a laboratory spray chamber fitted with 8003 flat fan nozzles calibrated to deliver 187-200 L ha^−1 at 269 kPa. Compound was incorporated into the soil by simulating rainfall equivalent to 0.2 mm using the same track sprayer. Subsequently, pots were irrigated from the bottom until assessed for % growth and germination inhibition. Pots were placed back in the growth chamber and evaluated for % growth and germination inhibition compared to TC 7 days after treatment (DAT). Growth conditions are similar to the ones mentioned in POST emergence assay.
(§8) The data presented in Table 4 indicate a percentage control, where 100% control indicates complete inhibition of growth.

Kochia scoparia (KCHSC) [6] = experiment: Pre-emergence herbicidal activity, KCHSC; conditions: 7 days after treatment
Excerpt: as §6, §7, §8

Setaria italica (SETIT) [7] = experiment: Pre-emergence herbicidal activity, SETIT; conditions: 7 days after treatment
Excerpt: as §6, §7, §8

[8] = test system: Echinochloa crus-galli (ECHCG); experiment: Pre-emergence herbicidal activity, ECHCG; conditions: 7 days after treatment
Excerpt: as §6, §7, §8

| SMILES | pest or weed control at 100 ppm [1] | pest or weed control at 100 ppm (Setaria italica (SETIT) [2]) | pest or weed control at 100 ppm [3] | Post-emergence (100 ppm) AMARE [1] | Post-emergence (100 ppm) SETIT (Setaria italica (SETIT) [2]) | Post-emergence (100 ppm) ECHCG [3] | Post-emergence (100 ppm) KCHSC (Kochia scoparia (KCHSC) [4]) | Pre-emergence (200 ppm) AMARE [5] | Pre-emergence (200 ppm) KCHSC (Kochia scoparia (KCHSC) [6]) | Pre-emergence (200 ppm) SETIT (Setaria italica (SETIT) [7]) | Pre-emergence (200 ppm) ECHCG [8] |
| --- | --- | --- | --- | --- | --- | --- | --- | --- | --- | --- | --- |
| COC(=O)[C@@H](C)N1C(=O)C(F)(F)Oc2cc(F)c(-c3c(F)c(F)c(F)c(F)c3F)cc21 [Compound 8, methyl (R)-2-(2,2,7-trifluoro-3-oxo-6-(perfluorophenyl)-2,3-dihydro-4H-benzo[b][1,4]oxazin-4-yl)propanoate] | 80% | 75% | 45% |  |  |  |  |  |  |  |  |
| C[C@@H](C(=O)O)N1C(=O)C(F)(F)Oc2cc(F)c(-c3c(F)c(F)c(F)c(F)c3F)cc21 [Compound 11, (S)-2-(2,2,7-trifluoro-3-oxo-6-(perfluorophenyl)-2,3-dihydro-4H-benzo[b][1,4]oxazin-4-yl)propanoic acid] | 95% | 96% | 83% |  |  |  |  |  |  |  |  |
| COC(=O)[C@@H]1CCCN1C(=O)CN1C(=O)C(F)(F)Oc2cc(F)c(-c3c(F)c(F)c(F)c(F)c3F)cc21 [Compound 74, methyl (2-(2,2,7-trifluoro-3-oxo-6-(perfluorophenyl)-2,3-dihydro-4H-benzo[b][1,4]oxazin-4-yl)acetyl)-L-prolinate] | 100% | 100% | 33% |  |  |  |  |  |  |  |  |
| COC(=O)[C@@H](C)N1C(=O)C(F)(F)Oc2cc(F)c(-c3c(F)cc(F)c(F)c3F)cc21 [Compound 77, methyl (2R)-2-(2,2,7-trifluoro-3-oxo-6-(2,3,4,6-tetrafluorophenyl)-2,3-dihydro-4H-benzo[b][1,4]oxazin-4-yl)propanoate] | 100% | 98% | 88% | 100% | 98% | 88% | 100% | 100% | 0% | 70% | 3% |
| C[C@@H](C(=O)O)N1C(=O)C(F)(F)Oc2cc(F)c(-c3c(F)cc(F)c(F)c3F)cc21 [Compound 78, (2S)-2-(2,2,7-trifluoro-3-oxo-6-(2,3,4,6-tetrafluorophenyl)-2,3-dihydro-4H-benzo[b][1,4]oxazin-4-yl)propanoic acid] | 100% | 100% | 70% | 100% | 100% | 70% | 93% | 100% | 60% | 18% | 5% |
| COC(=O)CCN(C)C(=O)CN1C(=O)C(F)(F)Oc2cc(F)c(-c3c(F)c(F)c(F)c(F)c3F)cc21 [Compound 80, methyl 3-(N-methyl-2-(2,2,7-trifluoro-3-oxo-6-(perfluorophenyl)-2,3-dihydro-4H-benzo[b][1,4]oxazin-4-yl)acetamido)propanoate] | 100% | 93% | 75% | 100% | 93% | 75% | 20% | 98% | 0% | 3% | 0% |
| CN(CC(=O)O)C(=O)CN1C(=O)C(F)(F)Oc2cc(F)c(-c3c(F)c(F)c(F)c(F)c3F)cc21 [Compound 85, N-methyl-N-(2-(2,2,7-trifluoro-3-oxo-6-(perfluorophenyl)-2,3-dihydro-4H-benzo[b][1,4]oxazin-4-yl)acetyl)glycine] | 100% | 88% | 25% |  |  |  |  |  |  |  |  |
| COC(=O)C1CN(C(=O)CN2C(=O)C(F)(F)Oc3cc(F)c(-c4c(F)c(F)c(F)c(F)c4F)cc32)C1 [Compound 86, methyl 1-(2-(2,2,7-trifluoro-3-oxo-6-(perfluorophenyl)-2,3-dihydro-4H-benzo[b][1,4]oxazin-4-yl)acetyl)azetidine-3-carboxylate] |  |  |  | 100% | 100% | 69% | 11% | 68% | 27% | 7% | 5% |
| COC(=O)CCNC(=O)[C@H](C)N1C(=O)C(F)(F)Oc2cc(F)c(-c3c(F)c(F)c(F)c(F)c3F)cc21 [Compound 130, methyl (S)-3-(2-(2,2,7-trifluoro-3-oxo-6-(perfluorophenyl)-2,3-dihydro-4H-benzo[b][1,4]oxazin-4-yl)propanamido)propanoate] | 100% | 100% | 92% |  |  |  |  |  |  |  |  |
| COC(=O)CCNC(=O)[C@@H](C)N1C(=O)C(F)(F)Oc2cc(F)c(-c3c(F)c(F)c(F)c(F)c3F)cc21 [Compound 131, methyl (R)-3-(2-(2,2,7-trifluoro-3-oxo-6-(perfluorophenyl)-2,3-dihydro-4H-benzo[b][1,4]oxazin-4-yl)propanamido)propanoate] | 100% | 83% | 15% |  |  |  |  |  |  |  |  |
| COC(=O)CCN(C)C(=O)[C@H](C)N1C(=O)C(F)(F)Oc2cc(F)c(-c3c(F)c(F)c(F)c(F)c3F)cc21 [Compound 132, methyl (S)-3-(N-methyl-2-(2,2,7-trifluoro-3-oxo-6-(perfluorophenyl)-2,3-dihydro-4H-benzo[b][1,4]oxazin-4-yl)propanamido)propanoate] | 100% | 100% | 70% |  |  |  |  |  |  |  |  |
| COC(=O)[C@H](OC)N1C(=O)C(F)(F)Oc2cc(F)c(-c3c(F)c(F)c(F)c(F)c3F)cc21 [Compound 185, methyl (S)-2-methoxy-2-(2,2,7-trifluoro-3-oxo-6-(perfluorophenyl)-2,3-dihydro-4H-benzo[b][1,4]oxazin-4-yl)acetate] |  |  |  | 100% | 100% | 50% | 100% | 100% | 83% | 100% | 43% |
